Test results: patent US9109048B2, “Inhibition of tumor growth” (priority 1998, dated 2015)
≈ marks a conversion by molar mass, not a printed value. Where “and” joins values, the source holds several entries; their conditions need not be identical. Equal entries are not always repeated. Where two headings read alike, the source gives them in different places. Values belong to the molecule of their own block, whether it stands above or below them. Square brackets hold non-standard residues; d marks the D form. Ends that are not written are not given here. Peptide text beside a SMILES is read from it. * marks the point of attachment. Trp(2-Pmc) = Cc1c(C)c(S(=O)(=O)c2[nH]c3ccccc3c2C[C@H](N)C(=O)O)c(C)c2c1OC(C)(C)CC2; Bip = N[C@@H](Cc1ccc(-c2ccccc2)cc1)C(=O)O; Fmoc = O=C(OCC1c2ccccc2-c2ccccc21)*; Acm = CC(=O)NC*

Experiments:
[1] = tested on: Meth A cells (murine sarcoma cell line); assay: Cytotoxicity on Meth A cells, MTT method; conditions: for Meth A IC 50: 4 h
Experimental: Peptide solutions (0.1 ml) were added and the plates incubated at 37° C. for 30 minutes, 4 hours or 24 hours. The cytotoxicity was measured using the MTT method (Mosmann et al., J. Immunol. (1986) 136, 2348-2357).
Cells in the growth phase were harvested and washed in fresh medium and injected subcutaneously into the abdominal region of the mice.
The cytotoxic effect of the peptides on different murine and human tumor cells were measured using the MTT method (Mosmann et al., J. Immunol. (1986) 136, 2348-2357).
MTT is a soluble tetrazolium salt yielding a yellow solution when prepared in media or salt solutions lacking phenol red. Dissolved MTT is converted to an insoluble purple formazan by cleavage of the tetrazolium ring by dehydrogenase enzymes. This water insoluble formazan can be solubilized using isopropanol or other solvents and the dissolved material is measured spectrophotometrically. The absorbance was measured as a function of concentration of converted dye.
Cells were maintained in […] medium containing 10% FBS, 1% L-glutamine and 0.1% penicillin and streptomycin. Cells to be used in the assay were grown to confluency, trypsinated and split to single cell suspension, counted and centrifuged at 1500 rpm for 10 min. […][…] of cell suspension was transferred to each well on a 96-well microtiter plate. The cells were stimulated by adding […] of various concentrations of peptides diluted with assay medium to each well. The final concentrations of peptide were for example: 5, 10, 20, 40, 60, 80, 100, and 200 mg/ml. […] As a negative control only medium was added to the cells, and as a positive control (100% killing) 1% triton X-100 was added. Following an incubation period of 4 h., 20 ml MTT dissolved in PBS at a concentration of 5 mg/ml was added to each well, and the plate was incubated further for 2 h. 130 ml of the supernatant were then removed and […] acid alcohol (0.04-0.1 N HCl in isopropanol) added to each well to dissolve the dark blue crystals. The plate was placed on a shaker for 1 h and read spectrophotometrically at 590 nm in a microtiterplate reader using the Softmaxâ program.

[2] = tested on: MRSA (methicillin resistant S. aureus); type: cell-based
Experimental: (§1) The bacterial strains used were: Escherichia coli ATCC 25922 and Staphylococcus aureus ATCC 25923. All strains were stored at −70° C. The bacteria were grown in 2% Bacto Peptone water (Difco 1807-17-4). All tests were performed with bacteria in mid-logarithmic growth phase. Determination of the minimum inhibitory concentration (MIC) of the peptides for bacterial strains were performed in 1% Bacto Peptone water. A standard microdilution technique with an inoculum of 2×10^6 CFU/ml was used. All assays were performed in triplets. Since the peptides are positively charged and therefore could adhere to the plastic wells, we controlled the actual concentration of the peptides in the solution by HPLC. There was no difference between the concentration of the peptides before or after adding the solution to the plastic wells.
Table 15 below gives the antibacterial activity and toxicity data for some preferred peptides of the invention. MRSA is methicillin resistant S. aureus and MRSE is methicilin resistant S. epidermidis.

[3] = tested on: Staphylococcus aureus ATCC 25923; assay: MIC (minimum inhibitory concentration) test, microdilution; type: cell-based
Experimental: as §1

[4] = tested on: Escherichia coli ATCC 25922; assay: as above; type: cell-based
Experimental: as §1

[5] = Table 7, in µg/mL (unit assumed)

Molecule: CSCC[C@H](NC(=O)[C@H](CCCNC(=N)N)NC(=O)[C@H](C)NC(=O)[C@H](CCC(N)=O)NC(=O)[C@H](Cc1c(S(=O)(=O)c2c(C)c(C)c3c(c2C)CCC(C)(C)O3)[nH]c2ccccc12)NC(=O)[C@H](CCCNC(=N)N)NC(=O)[C@H](CCCNC(=N)N)NC(=O)[C@H](CSCNC(C)=O)NC(=O)[C@H](CCCCN)NC(=O)[C@H](Cc1ccccc1)NC(=O)OCC1c2ccccc2-c2ccccc21)C(=O)N[C@@H](CCCCN)C(=O)N[C@@H](CCCCN)C(=O)N[C@@H](CC(C)C)C(=O)NCC(=O)N[C@@H](C)C(=O)O [LFB A8 FMOC PMC] (Fmoc-FKC(Acm)RR[Trp(2-Pmc)]QARMKKLGA-OH)
concentration effective in killing Meth A cells ([1]; 4 hours incubation): 50 µg/mL | concentration effective in killing Meth A cells ([1]; ½ hour incubation): higher than 100 μg/ml

Molecule: CSCC[C@H](NC(=O)[C@H](CCCNC(=N)N)NC(=O)[C@H](C)NC(=O)[C@H](CCC(N)=O)NC(=O)[C@H](Cc1c[nH]c2ccccc12)NC(=O)[C@H](CCCNC(=N)N)NC(=O)[C@H](CCCNC(=N)N)NC(=O)[C@H](CSCNC(C)=O)NC(=O)[C@H](CCCCN)NC(=O)[C@H](Cc1ccccc1)NC(=O)OCC1c2ccccc2-c2ccccc21)C(=O)N[C@@H](CCCCN)C(=O)N[C@@H](CCCCN)C(=O)N[C@@H](CC(C)C)C(=O)NCC(=O)N[C@@H](C)C(=O)O [LFB A8 FMOC] (Fmoc-FKC(Acm)RRWQARMKKLGA-OH)
concentration effective in killing Meth A cells ([1]; 4 hours incubation): 250 µg/mL | concentration effective in killing Meth A cells ([1]; ½ hour incubation): 250 µg/mL

Molecule: CSCC[C@H](NC(=O)[C@H](CCCNC(=N)N)NC(=O)[C@H](Cc1c[nH]c2ccccc12)NC(=O)[C@H](CCC(N)=O)NC(=O)[C@H](Cc1c[nH]c2ccccc12)NC(=O)[C@H](CCCNC(=N)N)NC(=O)[C@H](CCCNC(=N)N)NC(=O)[C@H](Cc1ccc(-c2ccccc2)cc1)NC(=O)[C@H](CCCCN)NC(=O)[C@@H](N)Cc1ccccc1)C(=O)N[C@@H](CCCCN)C(=O)N[C@@H](CCCCN)C(=O)N[C@@H](CC(C)C)C(=O)NCC(=O)N[C@@H](C)C(=O)O [LFB Bip3] (H-FK[Bip]RRWQWRMKKLGA-OH; N-terminus assumed)
MIC MRSA ([2]; Table 15): 2.5 µg/mL (≈ 1.18 µM)

Molecule: CSCC[C@H](NC(=O)[C@H](CCCNC(=N)N)NC(=O)[C@H](Cc1ccc(-c2ccccc2)cc1)NC(=O)[C@H](CCC(N)=O)NC(=O)[C@H](Cc1ccc(-c2ccccc2)cc1)NC(=O)[C@H](CCCNC(=N)N)NC(=O)[C@H](CCCNC(=N)N)NC(=O)[C@H](CSCNC(C)=O)NC(=O)[C@H](CCCCN)NC(=O)[C@@H](N)Cc1ccccc1)C(=O)N[C@@H](CCCCN)C(=O)N[C@@H](CCCCN)C(=O)N[C@@H](CC(C)C)C(=O)NCC(=O)N[C@@H](C)C(=O)O [LFB Bip6,8]
MIC S. aureus ([3]; Table 15): 3.0 µg/mL (≈ 1.4 µM) | MIC E. coli ([4]; Table 15): ≧5.8 μM | MIC MRSA ([2]; Table 15): 2.5 µg/mL (≈ 1.17 µM)

Molecule: CSCC[C@H](NC(=O)[C@H](CCCNC(=N)N)NC(=O)[C@H](Cc1ccc(-c2ccccc2)cc1)NC(=O)[C@H](CCC(N)=O)NC(=O)[C@H](Cc1c(S(=O)(=O)c2c(C)c(C)c3c(c2C)CCC(C)(C)O3)[nH]c2ccccc12)NC(=O)[C@H](CCCNC(=N)N)NC(=O)[C@H](CCCNC(=N)N)NC(=O)[C@H](CSCNC(C)=O)NC(=O)[C@H](CCCCN)NC(=O)[C@@H](N)Cc1ccccc1)C(=O)N[C@@H](CCCCN)C(=O)N[C@@H](CCCCN)C(=O)N[C@@H](CC(C)C)C(=O)NCC(=O)N[C@@H](C)C(=O)O [LFB Bip8 PMC]
MIC S. aureus ([3]; Table 9): 5 µg/mL (≈ 2.11 µM) | MIC S. aureus ([3]; Table 15): 2.5 μg/ml and 1.1 μM | MIC E. coli ([4]; Table 9): 25 µg/mL (≈ 10.6 µM) | MIC E. coli ([4]; Table 15): 15.0 μg/ml and 6.3 μM | MIC MRSA ([2]; Table 15): 2.5 µg/mL (≈ 1.06 µM)

The next lines start with results.

MIC S. aureus ([3]; Table 16): 5 µg/mL (≈ 2.96 µM) | MIC E. coli ([4]; Table 16, peptides with D-amino acids): 7.5 µg/mL (≈ 4.43 µM) | MIC MRSA ([2]; Table 16): 2.5 µg/mL (≈ 1.48 µM)
Molecule: C[C@@H](NC(=O)[C@H](Cc1c[nH]c2ccccc12)NC(=O)[C@H](CCCNC(=N)N)NC(=O)[C@H](Cc1c[nH]c2ccccc12)NC(=O)[C@@H](C)NC(=O)[C@@H](CCCNC(=N)N)NC(=O)[C@H](N)Cc1ccc(O)cc1)C(=O)N[C@@H](Cc1c[nH]c2ccccc12)C(=O)N[C@@H](CCCNC(=N)N)C(=O)N[C@@H](Cc1c[nH]c2ccccc12)C(=O)N[C@@H](CCCNC(=N)N)C(N)=O [SEQ ID NO: 34, tyr-arg-ala-TRP-ARG-TRP-ala-TRP-ARG-TRP-ARG-CONH2] (H-[dY][dR][dA]WRW[dA]WRWR-NH2; N-terminus assumed)

MIC S. aureus ([3]; ATCC 25923): 10 µg/mL | MIC S. aureus [3, 5]: 5-10 | MIC E. coli ([4]; ATCC 25922): 7.5 µg/mL | MIC E. coli [4, 5]: 5-10
Molecule: GIGKFLHSAKKFGKAFVGWIMNS [Mag2 W19]
Meth A IC 50 [1]: 9 µg/mL

MIC S. aureus ([3]; ATCC 25923): 10 µg/mL | MIC E. coli ([4]; ATCC 25922): 15 µg/mL
Molecule: GIGKFWKKARKWGRWFWRILKKG [Tosmag W6,12,15,17]
Meth A IC 50 [1]: 23 µg/mL

MIC S. aureus ([3]; ATCC 25923): >50 µg/mL | MIC E. coli ([4]; ATCC 25922): >50 µg/mL
Molecule: GIGKWLKKWRKFWRAWVRIWKKG [Tosmag W5,9,13,16,20]
Meth A IC 50 [1]: 23 µg/mL
